Assay results as given in patent US9872875B2, “Component and method for treating viral disease” (Institut Pasteur of Shanghai, Chinese Academy of Sciences, priority 2012, dated 2018).
Where two headings read alike, the source gives them in different places.

Legend:
[1] = tested on: EV71 clinical isolate (EV71 FY 573); assay: EV71 TCID50 (CPE, crystal violet) in RD cells; type: cell-based, Enterovirus 71
Experimental: EV71 (clinical isolate EV71 FY 573) in 10-fold serial dilutions was used to infect RD cells at different E02 concentrations. After 3-4 days of incubation, CPE (cytopathic effect) was observed under optical microscope and stained with crystal violet to calculate 50% tissue culture infective dose. Procedures are detailed as follows:
(1) Cell seeding: 24 h prior to infection, RD cells were seeded in 96-well cell culture plates, 5×10^4 cells per well.
(2) Infection: • a. Virus pre-incubated with drug: virus stock solution was in 10-fold serial dilution with DMEM and dispensed to 96-well plates at 100 μl per well, and 11 μl of E02 dissolved in DMEM at corresponding concentration was added, and incubated at 37° C. for 1 h; • b. Cells pre-incubated with drug: cell culture medium was removed from 96-well plates, each well was added 100 μl DMEM, then added 11 μl of E02 solution at corresponding concentration, and incubated at 37° C. for 1 h; • c. After 1 h incubation, drug was discarded from cell culture plates, 111 μl of virus pre-incubated with drug was transferred to cell culture plates, and incubated at 37° C. for 1 h; • d. […]
(3) After cultured for 3-4 days, CPE was observed under optical microscope, and stained with crystal violet, TCID50 was calculated using Reed-Muench method.

EV71 isolate SEP-4 = assay: EV71 SEP-4 replication in Vero cells, quantitative RT-PCR; type: cell-based, Enterovirus 71; conditions: SEP-4, Vero cells, MOI 0.1, 46 h
Experimental: Vero cells were infected with EV71 SEP-4 virus strain (provided by Institut Pasteur of Cambodia, Cambodia strain) at different E02 concentrations, at the MOI of 0.1. After cultured for 46 h, viral RNA in culture supernatant was extracted. Relative EV71 viral load was determined by quantitative RT-PCR. For specific procedures, refer to Example 1.

P2X1 receptor = target: T1, P2X1 receptor (Homo sapiens, UniProt P51575); conditions: cited from earlier work
T1 sequence (P51575 1-399): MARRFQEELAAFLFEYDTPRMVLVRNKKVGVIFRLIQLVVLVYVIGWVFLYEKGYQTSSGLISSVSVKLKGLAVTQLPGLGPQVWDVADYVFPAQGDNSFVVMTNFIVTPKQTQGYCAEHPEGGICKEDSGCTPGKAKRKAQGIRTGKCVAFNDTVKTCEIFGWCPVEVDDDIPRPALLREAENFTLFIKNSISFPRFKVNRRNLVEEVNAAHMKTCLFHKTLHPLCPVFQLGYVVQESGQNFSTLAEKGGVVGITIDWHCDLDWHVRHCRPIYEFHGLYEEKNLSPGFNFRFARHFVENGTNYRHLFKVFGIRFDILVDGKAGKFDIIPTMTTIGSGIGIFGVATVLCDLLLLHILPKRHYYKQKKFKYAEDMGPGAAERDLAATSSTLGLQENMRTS

P2X2 receptor = target: T2, P2X2 receptor (Homo sapiens, UniProt Q9UBL9); conditions: cited from earlier work
T2 sequence (Q9UBL9 1-471): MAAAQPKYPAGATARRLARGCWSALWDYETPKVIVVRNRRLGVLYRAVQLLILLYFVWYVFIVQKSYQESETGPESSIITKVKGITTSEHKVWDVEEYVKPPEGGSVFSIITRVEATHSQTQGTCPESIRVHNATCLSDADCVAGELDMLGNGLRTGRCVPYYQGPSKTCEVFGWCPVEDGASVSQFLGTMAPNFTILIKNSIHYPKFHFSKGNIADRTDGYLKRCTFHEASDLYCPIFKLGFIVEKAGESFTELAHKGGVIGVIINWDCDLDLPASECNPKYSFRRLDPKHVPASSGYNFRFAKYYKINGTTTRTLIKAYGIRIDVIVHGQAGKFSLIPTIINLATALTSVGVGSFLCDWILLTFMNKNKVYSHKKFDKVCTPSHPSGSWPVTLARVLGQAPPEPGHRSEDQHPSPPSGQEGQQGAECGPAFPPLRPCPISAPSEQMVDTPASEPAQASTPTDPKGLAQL

P2X4 receptor = target: T3, P2X4 receptor (Homo sapiens, UniProt Q99571); conditions: Table 8, antagonists; cited from earlier work
T3 sequence (Q99571 1-388): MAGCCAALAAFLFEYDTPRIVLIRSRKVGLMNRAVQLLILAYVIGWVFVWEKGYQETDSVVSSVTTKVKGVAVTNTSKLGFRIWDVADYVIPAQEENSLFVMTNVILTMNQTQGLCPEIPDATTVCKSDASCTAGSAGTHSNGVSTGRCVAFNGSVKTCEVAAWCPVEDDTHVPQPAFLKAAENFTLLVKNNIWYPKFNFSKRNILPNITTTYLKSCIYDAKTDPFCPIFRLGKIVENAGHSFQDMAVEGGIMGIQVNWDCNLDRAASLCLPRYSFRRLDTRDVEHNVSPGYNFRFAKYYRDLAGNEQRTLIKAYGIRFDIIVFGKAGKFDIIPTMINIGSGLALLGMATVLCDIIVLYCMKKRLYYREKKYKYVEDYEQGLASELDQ

P2X7 receptor = target: T4, P2X7 receptor (Homo sapiens, UniProt Q99572); conditions: Table 8, antagonists; cited from earlier work
T4 sequence (Q99572 1-595): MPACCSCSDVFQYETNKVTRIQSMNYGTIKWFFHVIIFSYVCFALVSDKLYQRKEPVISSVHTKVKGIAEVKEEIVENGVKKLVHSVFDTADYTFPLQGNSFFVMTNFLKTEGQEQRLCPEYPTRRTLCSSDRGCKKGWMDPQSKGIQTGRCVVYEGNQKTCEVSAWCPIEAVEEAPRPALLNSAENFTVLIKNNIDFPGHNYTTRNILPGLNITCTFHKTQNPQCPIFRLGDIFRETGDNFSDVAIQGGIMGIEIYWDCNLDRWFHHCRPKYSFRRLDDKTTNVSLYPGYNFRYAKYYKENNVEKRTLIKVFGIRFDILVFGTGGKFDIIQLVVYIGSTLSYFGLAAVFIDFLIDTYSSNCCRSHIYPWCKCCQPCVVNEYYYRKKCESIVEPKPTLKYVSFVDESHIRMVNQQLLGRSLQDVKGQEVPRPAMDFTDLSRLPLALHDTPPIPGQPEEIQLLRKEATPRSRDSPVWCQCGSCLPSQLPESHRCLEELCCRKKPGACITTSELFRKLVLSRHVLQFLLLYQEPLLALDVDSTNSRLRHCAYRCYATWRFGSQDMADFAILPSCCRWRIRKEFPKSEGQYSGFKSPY

Structure (SMILES)	inhibition of EV71 clinical isolate infection of RD cells ([1]; 10 μM of E02)	EC50 ([1]; Enterovirus A, RD, EV71 FY 573, 3-4 days, read-out: EC50 to reduce EV71 TCID50 in RD cells) [µM]	concentration reducing EV71 replication by 10-fold (EV71 isolate SEP-4) [μM]	concentration reducing EV71 replication by 100-fold (EV71 isolate SEP-4) [µM]	P2X receptors 1 (P2X1 receptor)	P2X receptors 2 (P2X2 receptor)	P2X receptors 4 (P2X4 receptor)	P2X receptors 7 (P2X7 receptor)	P2X receptors 1 (P2X1 receptor; Table 8, antagonists)	P2X receptors 2 (P2X2 receptor; Table 8, antagonists)
Cc1ccc(C(=O)Nc2ccc(S(=O)(=O)O)c3cc(S(=O)(=O)O)cc(S(=O)(=O)O)c23)cc1NC(=O)c1cccc(NC(=O)Nc2cccc(C(=O)Nc3cc(C(=O)Nc4ccc(S(=O)(=O)O)c5cc(S(=O)(=O)O)cc(S(=O)(=O)O)c45)ccc3C)c2)c1 [E02, Suramin Sodium]	completely inhibit	4.7	5.89	15.49	++ (key: −: no activity; +: inhibitory concentration >300 nM; ++: inhibitory concentration = 10~300 nM; +++: inhibitory concentration <10 nM)	+ (key: −: no activity; +: inhibitory concentration >300 nM; ++: inhibitory concentration = 10~300 nM; +++: inhibitory concentration <10 nM)	−	−		
Cc1nc(N=Nc2ccc(S(=O)(=O)O)cc2S(=O)(=O)O)c(COP(=O)(O)O)c(C=O)c1O [PPADS, pyridoxal-phosphate-6-azophenyl-2′, 4′-disulphonic acid]							−	+ (+: inhibitory concentration >300 nM)	++ (++: inhibitory concentration = 10~300 nM)	++ (++: inhibitory concentration = 10~300 nM)
